Data taken from ChEMBL document CHEMBL6134837, “Synergistic Cancer Therapy: An NIR-Activated Methylene Blue-Nitrogen Mustard Prodrug for Combined Chemotherapy and Photodynamic Therapy” (J Med Chem, 2025).
Activity calls are given as the source filed them. The rule behind the calls is not given here.

Tests used:
B16-F10 [1] = experiment: Induction of DNA damage in mouse B16-F10 cells assessed as green fluorescence in nuclei at 10 uM measured after irradiation with […] light by gamma-H2AX based assay; type: functional, cell-based
[2] = Induction of ROS generation in DCFH solution assessed as fold increase in fluorescent intensity using 525 nm pre-irradiated compound relative to non-illuminated condition; type: functional
B16-F10 [3] = experiment: Cytotoxicity against mouse B16-F10 cells assessed as cell viability measured irradiated with 100 mW/cm^2, 660 nm light for 15 mins and measured after 48 hrs incubation by MTT assay; type: functional, cell-based; settings: B16-F10, light or radiation study
B16-F10 [4] = experiment: Induction of ROS generation in mouse B16-F10 cells assessed as increase in intracellular superoxide anion by measuring red fluorescence in nucleus at 10 uM measured co-incubated with dihydroethidium (DHE) followed by irradiated for 3 to 15 mins; type: functional, cell-based; settings: time 3-15 min
B16-F10 [5] = experiment: Induction of DNA damage in mouse B16-F10 cells assessed as condensed chromatin measured after irradiation with […] light at 10 uM by Hoechst 33342 staining based assay; type: functional, cell-based
[6] = Toxicity in BALB/c mouse transplanted with mouse B16-F10 cells assessed as liver damage measured at 200 uM administered via intratumoural injection measured after 7 days by H and E staining based analysis; type: tissue-based; settings: in vivo, other, 168 h, route it(Intratumoral), time 7 day
B16-F10 [7] = experiment: Induction of apoptosis in mouse B16-F10 cells assessed as late apoptotic cells at 10 uM measured after 8 hrs by annexin VFITC (AV)/propidium iodide (PI) based flow cytometry (reference value: 5.20%); type: functional
B16-F10 [8] = experiment: Cytotoxicity against mouse B16-F10 cells assessed as decrease in green fluorescence at 1 to 10 uM measured after cells irradiated with 100 mW/cm^2, 660 nm light irradiation for 15 mins by Calcein-AM/PI staining based photodynamic therapy (PDT) assay; type: functional, cell-based; settings: dose 1-10 µM
B16-F10 [9] = experiment: Induction of apoptosis in mouse B16-F10 cells assessed as necrotic cells at 10 uM measured after 8 hrs by annexin VFITC (AV)/propidium iodide (PI) based flow cytometry (reference value: 1.61%); type: functional
B16-F10 [10] = experiment: In vivo antitumor activity against mouse B16-F10 cells transplanted in BALB/c mouse model assessed as tumor growth inhibition at 200 uM administered via intratumoural injection followed by irradiated with 660 nm laser irradiation measured for 7 days; type: functional, organism-based; settings: route it(Intratumoral), time 7.0 day
[11] = Toxicity in BALB/c mouse transplanted with mouse B16-F10 cells assessed as lung damage measured at 200 uM administered via intratumoural injection measured after 7 days by H and E staining based analysis; type: tissue-based; settings: in vivo, other, 168 h, route it(Intratumoral), time 7 day
B16-F10 [12] = experiment: Cytotoxicity against mouse B16-F10 cells assessed as cell death rate measured at 2 uM irradiated with 100 mW/cm^2, 660 nm light for 15 mins and measured after 48 hrs of incubation by MTT assay relative to control; type: functional
[13] = Toxicity in BALB/c mouse transplanted with mouse B16-F10 cells assessed as spleen damage measured at 200 uM administered via intratumoural injection measured after 7 days by H and E staining based analysis; type: tissue-based; settings: in vivo, other, 168 h, route it(Intratumoral), time 7 day
B16-F10 [14] = experiment: Induction of apoptosis in mouse B16-F10 cells assessed as early apoptotic cells at 10 uM measured after 8 hrs by annexin VFITC (AV)/propidium iodide (PI) based flow cytometry (reference value: 1.02%); type: functional
B16-F10 [15] = experiment: Cytotoxicity against mouse B16-F10 cells assessed as cell viability measured at 10 uM after cells irradiated with 100 mW/cm^2, 660 nm light irradiation for 15 mins followed by measured after 48 hrs incubation by MTT assay relative to control; type: functional; settings: B16-F10, light or radiation study, read-out: Activity
B16-F10 [16] = experiment: Induction of apoptosis in mouse B16-F10 cells assessed as viable cells at 10 uM measured after 8 hrs by annexin VFITC (AV)/propidium iodide (PI) based flow cytometry (reference value: 92.2%); type: functional; settings: read-out: Activity
B16-F10 [17] = experiment: In vivo antitumor activity against mouse B16-F10 cells transplanted in BALB/c mouse model assessed as inhibition of tumor cells in tumor slice at 200 uM administered via intratumoural injection followed by irradiated with 660 nm laser irradiation measured for 7 days by H and E staining based analysis; type: functional, organism-based; settings: route it(Intratumoral), time 7.0 day
[18] = Induction of ROS generation assessed as increase in singlet oxygen production by measuring reduction in ABDA absorption; type: functional
[19] = Induction of ROS generation assessed as superoxide anion production by measuring fold increase in fluorescent intensity of DHR123 using 526 nm pre-irradiated compound relative to non-illuminated condition; type: functional
[20] = Drug uptake in BALB/c mouse transplanted with mouse B16-F10 cells assessed as increase in fluorescence intensity at tumor site at 200 uM administered via intratumoural injection followed by irradiated with 660 nm laser measured for 3 to 21 mins by imaging assay; type: ADME; settings: in vivo, other, time 3-21 min, route it(Intratumoral)
B16-F10 [21] = experiment: Induction of apoptosis in mouse B16-F10 cells assessed as viable cells at 10 uM measured after 8 hrs followed by irradiated (100 mW/cm^2) for 15 mins by annexin VFITC (AV)/propidium iodide (PI) based flow cytometry (reference value: 92.2%); type: functional; settings: B16-F10, light or radiation study, read-out: Activity
B16-F10 [22] = experiment: Induction of ROS generation in mouse B16-F10 cells assessed as fluorescence intensity at 10 uM measured co-incubated with DCFH-DA followed by irradiated for 3 to 15 mins; type: functional, cell-based; settings: time 3-15 min
[23] = Toxicity in BALB/c mouse transplanted with mouse B16-F10 cells assessed as heart damage measured at 200 uM administered via intratumoural injection measured after 7 days by H and E staining based analysis; type: tissue-based; settings: in vivo, other, 168 h, route it(Intratumoral), time 7 day
B16-F10 [24] = experiment: Induction of apoptosis in mouse B16-F10 cells assessed as late apoptotic cells at 10 uM measured after 8 hrs followed by irradiated (100 mW/cm^2) for 15 mins by annexin VFITC (AV)/propidium iodide (PI) based flow cytometry (reference value: 5.20%); type: functional
[25] = Induction of ROS generation assessed as superoxide anion production by measuring increase in fluorescent intensity of DHR123 using 526 nm (using non pre-irradiated condition); type: functional
B16-F10 [26] = experiment: Cytotoxicity against mouse B16-F10 cells assessed as cell viability at 10 uM measured absence of irradiation by Calcein-AM/PI staining based assay; type: toxicity; settings: b16-f10, 10 µM
B16-F10 [27] = experiment: Cytotoxicity against mouse B16-F10 cells assessed as increase in dead cells by measuring red fluorescence at 10 uM measured after cells irradiated with 100 mW/cm^2, 660 nm light irradiation for 3 to 15 mins by Calcein-AM/PI staining based photodynamic therapy (PDT) assay; type: functional, cell-based; settings: time 3-15 min
[28] = Toxicity in BALB/c mouse transplanted with mouse B16-F10 cells assessed as body weight change measured at 200 uM administered via intratumoural injection measured after 7 days; settings: in vivo, other, 168 h, route it(Intratumoral), time 7 day
[29] = Induction of ROS generation in DCFH solution assessed as increase in fluorescent intensity using 525 nm pre-irradiated compound; type: functional
B16-F10 [30] = experiment: Induction of apoptosis in mouse B16-F10 cells assessed as necrotic cells at 10 uM measured after 8 hrs followed by irradiated (100 mW/cm^2) for 15 mins by annexin VFITC (AV)/propidium iodide (PI) based flow cytometry (reference value: 1.61%); type: functional
[31] = Photoactivation of the compound assessed as release of methylene blue at 10 uM measured after 21 mins under 660 nm laser irradiation; settings: 0.35 h
[32] = Induction of hydroxyl radicals generation after irradiation by coumarin-3-carboxylic acid (3-CCA) assay; type: functional
B16-F10 [33] = experiment: Induction of ROS generation in mouse B16-F10 cells assessed as increase in intracellular singlet oxygen by measuring […] fluorescence in nucleus at 10 uM measured co-incubated with SOSG followed by irradiated for 3 to 15 mins; type: functional, cell-based; settings: time 3-15 min
[34] = Hemolysis in healthy mouse RBC assessed as hemolysis rate at 1 to 256 uM measured after 2 hrs incubation by microplate reader; type: toxicity, cell-based, Erythrocyte; settings: mouse red blood cells, dose 1-256 µM, read-out: Activity
[35] = Photoactivation of the compound assessed as fluorescence changes at 10 uM measured after 21 mins under 660 nm laser irradiation relative to under dark condition; settings: 0.35 h
[36] = Stability of the compound measured after 7 days under dark condition; type: physicochemical; settings: 168 h; time 7 day
B16-F10 [37] = experiment: Cytotoxicity against mouse B16-F10 cells assessed as increase in dead cells by measuring red fluorescence at 10 uM measured after cells irradiated with 100 mW/cm^2, 660 nm light irradiation for 15 mins by Calcein-AM/PI staining based photodynamic therapy (PDT) assay; type: functional, cell-based
B16-F10 [38] = experiment: In vivo antitumor activity against mouse B16-F10 cells transplanted in BALB/c mouse model assessed as tumor growth inhibition at 200 uM administered via intratumoural injection followed by irradiated with 660 nm laser irradiation measured on day 1; type: functional, organism-based; settings: route it(Intratumoral), time 1.0 day
[39] = Toxicity in BALB/c mouse transplanted with mouse B16-F10 cells assessed as kidney damage measured at 200 uM administered via intratumoural injection measured after 7 days by H and E staining based analysis; type: tissue-based; settings: in vivo, other, 168 h, route it(Intratumoral), time 7 day
B16-F10 [40] = experiment: Induction of DNA damage in mouse B16-F10 cells assessed as green fluorescence in nuclei measured in absence light at 10 uM by gamma-H2AX based assay; type: functional, cell-based
[41] = Induction of ROS generation in DCFH solution assessed as increase in fluorescent intensity measured under laser irradiation 660 nm for continuous 9 secs; type: functional; settings: time 9.0 sec
B16-F10 [42] = experiment: Induction of apoptosis in mouse B16-F10 cells assessed as early apoptotic cells at 10 uM measured after 8 hrs followed by irradiated (100 mW/cm^2) for 15 mins by annexin VFITC (AV)/propidium iodide (PI) based flow cytometry (reference value: 1.02%); type: functional
[43] = Induction of ROS generation assessed as increase in singlet oxygen production using pre-irradiated compound by measuring reduction in ABDA absorption at 378 nm measured for 90 secs; type: functional; design: scale not given: the % may be the effect or the level left; settings: time 90.0 sec
[44] = Photoactivation of the compound assessed as release of methylene blue by measuring photolysis half-life at 10 uM under 660 nm laser irradiation
B16-F10 [45] = experiment: Cytotoxicity against mouse B16-F10 cells assessed as cell viability at 1 to 10 uM measured after 48 hrs incubation under dark by MTT assay; type: toxicity, cell-based; settings: b16-f10, 48 h, dose 1-10 µM
[46] = Induction of hydroxyl radicals generation before irradiation by coumarin-3-carboxylic acid (3-CCA) assay; type: functional

CN(C)c1ccc2nc3ccc(=[N+](C)C)cc-3sc2c1
Activity (B16-F10 [1]): Active

CN(C)c1ccc2c(c1)Sc1cc(N(C)C)ccc1N2C(=O)Nc1ccc(N(CCCl)CCCl)cc1
fold change (FC) [2]: 69
IC50 (B16-F10 [3]): 1350 nM
Activity (B16-F10 [4]): Active
Activity (B16-F10 [5]): Active
Activity [6]: Non-toxic
Activity (B16-F10 [7]): 3.27%
Activity (B16-F10 [8]): Active
Activity (B16-F10 [9]): 0.65%
Activity (B16-F10 [10]): Active
Activity [11]: Non-toxic
Activity (B16-F10 [12]): 62.2%
Activity [13]: Non-toxic
Activity (B16-F10 [14]): 6.85%
viability at 10 µM (B16-F10 [15]): 9.4%
viability at 10 µM (B16-F10 [16]): 89.2%
Activity (B16-F10 [17]): Active; Compared With Nm And Mb + Irradiation Group Â?? Compound Showed More Pronounced Effect
Activity [18]: inactive
fold change (FC) [19]: 113
Drug uptake [20]: Active
viability at 10 µM (B16-F10 [21]): 23.8%
Activity (B16-F10 [22]): Active; Fluorescence Intensity Of Dcfh Within Cells Exhibited A Positive Correlation With The Duration Of Light Exposure
Activity [23]: Non-toxic
Activity (B16-F10 [24]): 30.9%
Activity [25]: inactive
Activity (B16-F10 [26]): Non-toxic
Activity (B16-F10 [27]): Active
Activity [28]: Non-toxic
Activity [29]: Active
Activity (B16-F10 [30]): 0.45%
Activity [31]: 100%
Activity [32]: inactive
Activity (B16-F10 [33]): Active
hemolysis at 2 h, up to 256 µM [34]: < 5%
Activity (B16-F10 [1]): Active; Effect Is Higher Compared With Nm And Mb Group
fold change (FC) [35]: 7
Stability [36]: Stable
Activity (B16-F10 [37]): Active; Almost Exclusively Exhibiting Red Fluorescence Signal
Activity (B16-F10 [38]): Active; Compound Exhibit Strong Activity Relative To Mb+Light Group
Activity [39]: Non-toxic
Activity (B16-F10 [40]): Not active; Compound Showed Only Minimal Green Fluorescence
Activity [41]: inactive
Activity (B16-F10 [42]): 44.8%
Activity [43]: 97%
t1/2 [44]: 11 min
Activity (B16-F10 [45]): Non-toxic
Activity [46]: inactive

CN(C)c1ccc2nc3ccc(N(C)C)cc3[s+]c2c1.[Cl-] [METHYLENE BLUE ANHYDROUS]
viability at 10 µM (B16-F10 [15]): 22.5%
viability at 10 µM (B16-F10 [21]): 33.1%
Activity (B16-F10 [24]): 11.3%
Activity (B16-F10 [30]): 0.83%
Activity (B16-F10 [42]): 54.8%
